One may read the IC50 as the point on the concentration scale where inhibition reaches its midpoint.

Here are results for two molecules from US20140121201A1, “REGULATORY NETWORK FOR Th17 SPECIFICATION AND USES THEREOF” (priority 2012, published 2014).

In experiment [1] the test system is primary human macrophages. Conditions: cited from earlier work.
Experiment [2] addresses T1, STAT3 (mouse, UniProt P42227 2-770).
T1 construct: Endogenous transcription factor, probed by western blot (anti-STAT3, Cell Signaling) in the IRF4 immunoprecipitate
Description: co-immunoprecipitation of endogenous IRF4 from Th17-polarized cell lysate, western blot for STAT3. The protocol:
Naïve CD4 positive T cells were sorted and cultured under Th17 polarizing conditions for 48 h prior to assay. Whole cells lysates were prepared with high salt buffer (10 mM Tris, 420 mM NaCl, 0.5% NP40, 1 mM EDTA), sonicated, spun to remove insoluble particles, and diluted to a final concentration of 150 mM NaCl for co-immunoprecipitation. Endogenous IRF4 was immunoprecipitated using anti-IRF4 antibody in the presence or absence of 50 ug/ml ethidium bromide.

T1 sequence (P42227 2-770 limits assumed): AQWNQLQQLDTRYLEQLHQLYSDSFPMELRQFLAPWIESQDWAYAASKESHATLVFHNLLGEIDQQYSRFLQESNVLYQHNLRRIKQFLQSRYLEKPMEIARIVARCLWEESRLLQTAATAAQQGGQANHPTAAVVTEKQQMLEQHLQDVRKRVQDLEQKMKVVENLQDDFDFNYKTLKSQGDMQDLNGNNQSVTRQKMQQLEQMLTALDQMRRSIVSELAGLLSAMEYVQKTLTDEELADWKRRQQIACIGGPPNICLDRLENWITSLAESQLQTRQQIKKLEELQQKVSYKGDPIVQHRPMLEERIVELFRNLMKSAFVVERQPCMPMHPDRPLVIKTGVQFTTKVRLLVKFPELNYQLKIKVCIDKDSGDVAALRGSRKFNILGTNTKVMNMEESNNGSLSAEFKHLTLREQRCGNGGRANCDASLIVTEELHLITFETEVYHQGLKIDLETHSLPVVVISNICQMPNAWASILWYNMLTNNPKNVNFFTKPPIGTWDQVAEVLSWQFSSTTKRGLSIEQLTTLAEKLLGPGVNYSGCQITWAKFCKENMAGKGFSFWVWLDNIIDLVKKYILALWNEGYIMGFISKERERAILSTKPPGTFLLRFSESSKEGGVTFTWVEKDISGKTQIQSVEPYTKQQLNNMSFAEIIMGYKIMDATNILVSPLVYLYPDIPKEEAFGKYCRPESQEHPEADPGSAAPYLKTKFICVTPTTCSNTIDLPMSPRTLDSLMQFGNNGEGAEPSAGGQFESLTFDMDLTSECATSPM

As to `CCOC(=O)CCNc1cc(N2CCc3ccccc3CC2)nc(-c2ccccn2)n1` [GSK-J4], the half-inhibitory concentration (IC50) in experiment [1] is 9 µM.

B1: IRF4 (other, mouse, UniProt Q64287 1-450, looked up)
chain: MNLETGSRGSEFGMSAVSCGNGKLRQWLIDQIDSGKYPGLVWENEEKSVFRIPWKHAGKQDYNREEDAALFKAWALFKGKFREGIDKPDPPTWKTRLRCALNKSNDFEELVERSQLDISDPYKVYRIVPEGAKKGAKQLTLDDTQMAMGHPYPMTAPYGSLPAQQVHNYMMPPHDRSWRDYAPDQSHPEIPYQCPVTFGPRGHHWQGPSCENGCQVTGTFYACAPPESQAPGIPIEPSIRSAEALALSDCRLHICLYYRDILVKELTTTSPEGCRISHGHTYDVSNLDQVLFPYPDDNGQRKNIEKLLSHLERGLVLWMAPDGLYAKRLCQSRIYWDGPLALCSDRPNKLERDQTCKLFDTQQFLSELQVFAHHGRPAPRFQVTLCFGEEFPDPQRQRKLITAHVEPLLARQLYYFAQQNTGHFLRGYELPEHVTTPDYHRSLRHSSIQE
notes: Endogenous transcription factor, immunoprecipitated with an anti-IRF4 antibody from Th17-polarized cell lysate; also called Endogenous IRF4
On to B1, for which the binding result in experiment [2] was “no binding”.
